Key:
[1] = target: recombinant integrase (HIV integrase) (Human immunodeficiency virus type 1 group M subtype B, UniProt P04585)
Source text: The present invention includes the preparation of naphthyridine carboxamides of Formula (VIII) by the process set forth above in the Summary of the Invention. […] The strand transfer assay is described in Example 193 of WO 02/30930.

[2] = oral absorption and pharmacokinetics in animal models; type: in vivo; details: compared to Compound 15 per se

With `O=C(NCc1ccc(F)cc1)c1nc(N2CCCCS2(=O)=O)c2cccnc2c1O` [Compound 15, 5-(1,1-dioxido-1,2-thiazinan-2-yl)-N-(4-fluorobenzyl)-8-hydroxy-1,6-naphthyridine-7-carboxamide] as the molecule, how does the “HIV integrase inhibition (in words)” value [1] read?
The value was “potent HIV integrase inhibitor”.

What does the source list for `O=C(NCc1ccc(F)cc1)c1nc(N2CCCCS2(=O)=O)c2cccnc2c1[O-].[Na+]` [Na salt of Compound 15, Sodium salt of 5-(1,1-Dioxido-1,2-thiazinan-2-yl)-N-(4-fluorobenzyl)-8-hydroxy-1,6-naphthyridine-7-carboxamide]?
oral absorption [2]: superior oral absorption; pharmacokinetics [2]: improved pharmacokinetics

From patent publication US20050014780A1, “Process for preparing 5-sulfonamido-8-hydroxy-1,6-naphthyridine-7-carboxamides” (priority 2001, published 2005)
